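Where inhibition never reached the appropriate level, the endpoint shown equals the highest concentration tested. Otherwise, values were interpolated linearly from a five-concentration, 48-hour dose response in 96-well plates. TGI: concentration producing complete growth inhibition.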 Some results are limits rather than exact numbers.

The text below walks through data of PubChem BioAssay (NCI).

One test relates to OVCAR-5 ovarian. The test can be described thus: growth of human tumour cells (NCI), 48 h.
Regarding `CCOC(=O)Cn1c(=O)c2nc(SC)sc2n(-c2ccccc2)c1=O`, the TGI is greater than 100 µM.

`COc1ccc(-c2nc(SCC(=O)N/N=C/c3ccc(N(C)C)cc3)[nH]c2-c2ccc(OC)cc2)cc1`: the TGI is greater than 100 µM.

Take `c1c[nH]c(-c2ccc(-c3ccc[nH]3)c3nsnc23)c1`: the TGI was greater than 96.1 µM.

As for `N#Cc1c(-c2ccccc2)/c(=C\Nc2ccc(F)cc2)c(=O)n2c1nc1ccccc12`, the TGI is greater than 100 µM.

`CCN(CC)CCn1c(=O)c2cccnc2n2c3c(=O)n(C)c(=O)n(C)c3nc12` yielded a TGI greater than 100 µM.

Molecule `CCOC(=O)C1=C(C)C2C=C(c3cccs3)CC(c3ccc(Cl)cc3)=C2OC1=O` (stereo not given) registered a TGI greater than 100 µM.

On to `OCCc1ccsc1-c1sc(-c2cc(CCO)c(-c3sccc3CCO)s2)cc1CCO`, for which the TGI was determined as 32.4 µM.

On to `COc1ccc2c(c1)OCC1Cc3ccccc3OC21` (stereo not given), for which the TGI is greater than 100 µM.

As to `Cc1cc2c3c(nc4ccccc42)C(=O)c2ccccc2-c3n1`, the TGI was greater than 100 µM.

For `CCOC(=O)c1nc2c(nc1C(=O)OCC)C(=O)c1ccccc1C2=O`, the TGI amounted to 2.24 µM.

The molecule `CCOC(=O)c1c(C)nc2c3ccccc3c(C#N)c(C)n12` displayed a TGI greater than 100 µM.

In turn, `Cc1ccc(C(=C2Sc3ccccc3S2)C(=C2Sc3ccccc3S2)c2ccc(C)s2)s1` returned a TGI greater than 100 µM.

`CCCCC(C(=O)NCCNC(=O)CCC(=O)N(C)O)C(=O)NCCNC(=O)CCC(=O)N(C)O` came in with a TGI greater than 100 µM.

On to `O=c1[nH]c(Nc2nc3ccccc3[nH]2)nc(O)c1-c1ccccc1`, for which the TGI was greater than 100 µM.

In the case of `COc1cccc2c1OC1(C=C2)Oc2ccccc2C(=O)N1C` (stereo not given), the TGI was greater than 100 µM.

Molecule `CC1=NS(=O)(=O)c2ccccc2N1` returned a TGI greater than 100 µM.

For the molecule `O=C(CC(C(=O)c1ccsc1)c1ccc2c(c1)OCO2)c1ccccc1` (stereo not given), the TGI is greater than 100 µM.

In the case of `COc1ccc(NC(=O)CC(=O)N2N=C(N3c4ccccc4Sc4ccccc43)CC2c2ccccc2)cc1` (stereo not given), the TGI was greater than 100 µM.

On to `O=C(O)CCC(=O)OC1N=C(c2ccccc2Cl)c2cc([N+](=O)[O-])ccc2NC1=O` (stereo not given), for which the TGI is greater than 100 µM.

With `COc1ccc(C2=N/C(=C\c3ccccc3)C(=O)O2)cc1`, the TGI was greater than 100 µM.

`CC1(C)C2CCC1(C)[C@H](n1c(=O)n([C@@H]3CC4CCC3(C)C4(C)C)c(=O)n([C@@H]3CC4CCC3(C)C4(C)C)c1=O)C2` returned a TGI greater than 100 µM.

For `CC(=N/N=C/c1ccccn1)/C(C)=N/N=C(C)/C(C)=N/N=C(C)/C(C)=N/N=C(C)/C(C)=N\N=C\c1ccccn1`, the TGI is greater than 100 µM.

As to `Cc1ccc(-c2[nH]c(=O)n(C3OC(CO)C(O)C(O)C3O)c(=O)c2C#N)cc1` (stereo not given), the TGI is greater than 100 µM.

Molecule `Cc1cc(C(=O)CCCCOc2ccc(C3=NCCO3)cc2)c(C)n1C` returned a TGI greater than 100 µM.

For another test, the system named is MALME-3M melanoma. The test can be described thus: growth of human tumour cells (NCI), 48 h.
`Cc1c(S(=O)(=O)c2ccccc2)c(N)n(CCN(C)C)c1C` came in with a TGI greater than 100 µM.

`CCOC(=O)Cn1c(=O)c2nc(SC)sc2n(-c2ccccc2)c1=O` returned a TGI greater than 100 µM.

Molecule `COc1ccc(-c2nc(SCC(=O)N/N=C/c3ccc(N(C)C)cc3)[nH]c2-c2ccc(OC)cc2)cc1` gave a TGI greater than 100 µM.

The molecule `N#Cc1c(-c2ccccc2)/c(=C\Nc2ccc(F)cc2)c(=O)n2c1nc1ccccc12` came in with a TGI of 52.7 µM.

As for `CCN(CC)CCn1c(=O)c2cccnc2n2c3c(=O)n(C)c(=O)n(C)c3nc12`, the TGI is greater than 100 µM.

With `OCCc1ccsc1-c1sc(-c2cc(CCO)c(-c3sccc3CCO)s2)cc1CCO`, the TGI was 23.7 µM.

As to `COc1ccc2c(c1)OCC1Cc3ccccc3OC21` (stereo not given), the TGI is greater than 100 µM.

Take `CCOC(=O)c1nc2c(nc1C(=O)OCC)C(=O)c1ccccc1C2=O`: the TGI came to 0.362 µM.

In turn, `Cc1ccc(C(=C2Sc3ccccc3S2)C(=C2Sc3ccccc3S2)c2ccc(C)s2)s1` gave a TGI greater than 100 µM.

Regarding `CCCCC(C(=O)NCCNC(=O)CCC(=O)N(C)O)C(=O)NCCNC(=O)CCC(=O)N(C)O`, the TGI is greater than 100 µM.

For the molecule `O=c1[nH]c(Nc2nc3ccccc3[nH]2)nc(O)c1-c1ccccc1`, the TGI was greater than 100 µM.

The molecule `CC1=NS(=O)(=O)c2ccccc2N1` had a TGI greater than 100 µM.

Consider `O=C(O)CCC(=O)OC1N=C(c2ccccc2Cl)c2cc([N+](=O)[O-])ccc2NC1=O` (stereo not given), for which the TGI was greater than 100 µM.

With `CSc1nsc(-c2ccccc2)[s+]1`, the TGI is greater than 100 µM.

The molecule `CC(=N/N=C/c1ccccn1)/C(C)=N/N=C(C)/C(C)=N/N=C(C)/C(C)=N/N=C(C)/C(C)=N\N=C\c1ccccn1` returned a TGI greater than 100 µM.

In turn, `Cc1cc(C(=O)CCCCOc2ccc(C3=NCCO3)cc2)c(C)n1C` showed a TGI greater than 100 µM.

The next test relates to LOX IMVI melanoma. The experiment in a line: growth of human tumour cells (NCI), 48 h.
The molecule `CC1=NN(c2cccc(Cl)c2)C2(SCC(=O)N2c2nc3ccccc3s2)/C1=C\c1ccccc1O` (stereo not given) had a TGI greater than 100 µM.

In turn, `CCCCCCOc1ccc(C(=O)NOC)cc1` had a TGI greater than 100 µM.

On to `CC1CCC(C(=O)O)(C(Br)C(=O)O)CC1` (stereo not given), for which the TGI is greater than 100 µM.

The molecule `COc1cc(NS(C)(=O)=O)ccc1Nc1cc(C)[nH]c2ccc3nccc3c12` returned a TGI greater than 100 µM.

`COc1ccc(-c2nc(SCC(=O)N/N=C/c3ccc(N(C)C)cc3)[nH]c2-c2ccc(OC)cc2)cc1` had a TGI greater than 100 µM.

As for `c1c[nH]c(-c2ccc(-c3ccc[nH]3)c3nsnc23)c1`, the TGI is greater than 100 µM.

Regarding `CS(=O)(=O)OCC(CCl)(CCl)CCl`, the TGI is greater than 100 µM.

In turn, `N#Cc1c(-c2ccccc2)/c(=C\Nc2ccc(F)cc2)c(=O)n2c1nc1ccccc12` showed a TGI greater than 100 µM.

`CCOC(=O)C1=C(C)C2C=C(c3cccs3)CC(c3ccc(Cl)cc3)=C2OC1=O` (stereo not given) returned a TGI of 37.9 µM.

For the molecule `OCCc1ccsc1-c1sc(-c2cc(CCO)c(-c3sccc3CCO)s2)cc1CCO`, the TGI was 72.3 µM.

In the case of `COc1ccc2c(c1)OCC1Cc3ccccc3OC21` (stereo not given), the TGI was greater than 100 µM.

In turn, `CCOC(=O)c1c(C)nc2c3ccccc3c(C#N)c(C)n12` had a TGI greater than 100 µM.

As to `CCCCC(C(=O)NCCNC(=O)CCC(=O)N(C)O)C(=O)NCCNC(=O)CCC(=O)N(C)O`, the TGI is greater than 100 µM.

Molecule `O=c1[nH]c(Nc2nc3ccccc3[nH]2)nc(O)c1-c1ccccc1` showed a TGI greater than 100 µM.

The molecule `COc1cccc2c1OC1(C=C2)Oc2ccccc2C(=O)N1C` (stereo not given) returned a TGI of 14.5 µM.

`CC1=NS(=O)(=O)c2ccccc2N1` gave a TGI greater than 100 µM.

`O=C(CC(C(=O)c1ccsc1)c1ccc2c(c1)OCO2)c1ccccc1` (stereo not given) had a TGI greater than 100 µM.

The molecule `O=C(O)CCC(=O)OC1N=C(c2ccccc2Cl)c2cc([N+](=O)[O-])ccc2NC1=O` (stereo not given) gave a TGI greater than 100 µM.

`CC1(C)C2CCC1(C)[C@H](n1c(=O)n([C@@H]3CC4CCC3(C)C4(C)C)c(=O)n([C@@H]3CC4CCC3(C)C4(C)C)c1=O)C2` displayed a TGI greater than 100 µM.

Regarding `CC(=N/N=C/c1ccccn1)/C(C)=N/N=C(C)/C(C)=N/N=C(C)/C(C)=N/N=C(C)/C(C)=N\N=C\c1ccccn1`, the TGI is greater than 100 µM.

The next test deals with MOLT-4 leukemia. The experiment in a line: growth of human tumour cells (NCI), 48 h.
In the case of `CC1=NN(c2cccc(Cl)c2)C2(SCC(=O)N2c2nc3ccccc3s2)/C1=C\c1ccccc1O` (stereo not given), the TGI turned out to be 42.3 µM.

Molecule `CCCCCCOc1ccc(C(=O)NOC)cc1` registered a TGI greater than 100 µM.

Take `Cc1c(S(=O)(=O)c2ccccc2)c(N)n(CCN(C)C)c1C`: the TGI is greater than 100 µM.

`CC1CCC(C(=O)O)(C(Br)C(=O)O)CC1` (stereo not given): the TGI is greater than 100 µM.

Molecule `CCOC(=O)Cn1c(=O)c2nc(SC)sc2n(-c2ccccc2)c1=O` had a TGI greater than 100 µM.
